Laboratory results from patent publication US10383823B2 (Mallinckrodt LLC, priority 2013, dated 2019).

Tests used:
[1] = mouse KB tumor model
KB tumors = type: in vivo; conditions: KB tumored nude mice, dosed at 8 mg/kg cisplatin
[2] = tested on: A427 human NSCLC xenografts; conditions: single treatment, 14 days post injection, equivalent cisplatin levels

## N.N.[Cl][Pt][Cl] [Cisplatin, (SP-4-2)-diamminedichloridoplatinum (II)]
[1]
  maximum tolerated dose (MTD): less than 10 mg/kg
KB tumors
  peak tumor DNA/Pt adduct: less than 10 pg of Pt/μg of DNA
[2]
  tumor growth inhibition: 30%
